Reference: US10412961B2, “Substituted 2,3-dihydrobenzofuran compounds and their use as synergists” (Endura SPA, priority 2015, dated 2019)

What was measured:
[1] = target: T1, FE4 Myzus persicae esterases (Myzus persicae, UniProt P35502); assay: Inhibition of esterase FE4, 4-nitrophenyl acetate model substrate assay; type: biochemical; details: purified FE4, 2.5 μL of 10 mM compound in acetone, 10 min incubation, substrate 4-nitrophenyl acetate 0.8 mM, read at 405 nm
T1 construct: would be utilised for the purified esterases from aphids; from tissue; host or cells: aphids (Myzus persicae), purified esterase
T1 sequence (P35502 24-564): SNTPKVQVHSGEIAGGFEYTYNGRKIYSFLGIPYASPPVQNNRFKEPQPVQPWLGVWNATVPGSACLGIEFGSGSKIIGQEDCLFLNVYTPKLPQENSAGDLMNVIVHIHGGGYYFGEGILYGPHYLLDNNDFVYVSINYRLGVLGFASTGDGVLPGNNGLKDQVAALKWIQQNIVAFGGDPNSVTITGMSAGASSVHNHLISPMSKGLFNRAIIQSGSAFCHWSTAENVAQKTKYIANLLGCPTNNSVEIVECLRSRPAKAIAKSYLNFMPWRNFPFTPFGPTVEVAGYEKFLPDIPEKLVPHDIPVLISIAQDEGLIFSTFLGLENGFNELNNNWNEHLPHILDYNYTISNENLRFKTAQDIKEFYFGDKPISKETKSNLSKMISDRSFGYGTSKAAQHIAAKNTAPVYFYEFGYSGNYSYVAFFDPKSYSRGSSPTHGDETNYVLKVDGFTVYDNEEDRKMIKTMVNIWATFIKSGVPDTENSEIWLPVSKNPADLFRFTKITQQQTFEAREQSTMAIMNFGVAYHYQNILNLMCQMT
Procedure: Inhibition of Esterasenzymes by Synergists in Myzus persicae
It was envisaged, therefore, that the ‘esterase intereference assay’ (Khot et al., 2008) would be utilised for the purified esterases from aphids. Various esterase substrates were assessed to find one suitable of monitoring inhibition in an insect homogenate. The Myzus persicae resistance associated esterase, FE4, was used.
Initially the esterase interference assay was carried out, as being the ‘absolute’ protocol for characterizing interactions between the compounds of Example 1-9 and FE4. However, since this is a protracted method, a selection of products already reported in the literature were used to compare the interference assay and the use of a model substrate.
From the literature (Philippou et al., 2013) it is known that 1-naphthyl acetate is not suitable for this assay. Instead, 4-nitrophenyl acetate was used. A 10 mM pNA stock was prepared in acetone and added to 0.02 M phosphate buffer pH 7.0 (final concentration 2 mM). The comparison was made with 6 PBO analogues of variable efficacy.
For the assay 10 μL of purified FE4 was diluted to a total volume of 50 μL by the addition of 0.02 M phosphate buffer, pH 7.0 in individual wells of a microplate (maxisorb, NUNC). To each well, 2.5 μL of 10 mM of the compound of Example 1 and of Example 2 in acetone was added and incubated for 10 mins, with acetone only used as a control. Following incubation, 100 μL of 0.02 phosphate buffer, pH 7.0 and 100 μL of 2 mM 4-nitrophenyl acetate was added (final volume in well 250 μL, final substrate concentration 0.8 mM). Enzyme activity was read at 405 nm in a Spectramax Tmax for 5 min, with readings taken every 5 secs. The rate (mOD min^−1) was calculated by the integrated software, Softmax Pro v.5.4.

Bemisia tabaci CYPCM1 = details: recombinant enzyme 50 μL + 3 μL of 10 mM compound stock in acetone, 10 min incubation at room temperature, substrate 7-ethoxycoumarin, NADPH
Procedure: Ability of the compounds of the invention to inhibit oxidative enzymes (P450), a major mechanism conferring resistance to xenobiotics, was measured using recombinant enzymes corresponding to CYPCM1 from Bemisia tabaci.
Substrate used was 7-ethoxycoumarin for inhibition assays as described by Ulrich and Weber (1972) and adapted to microplate format as described by De Sousa et al. (1995).
Diluted recombinant enzyme (50 μL) was mixed with 3 μL of the above mentioned compound stock solutions, with acetone only used as a control. After 10 min incubation at room temperature, 80 μL of 0.125 mM 7- ethoxycoumarin was added, followed by 10 μL 9.6 mM NADPH (nicotinamide adenine dinucleotide phosphate) in 0.1 M sodium phosphate, pH 7.8, and O-deethylation activity monitored as above. A PBO solution (10 mM) was prepared in the same way as a comparison.

[2] = target: T2, E4, a resistance-associated esterase (Myzus persicae, UniProt P35501); details: compared with PBO; cited from earlier work
T2 sequence (P35501 24-552): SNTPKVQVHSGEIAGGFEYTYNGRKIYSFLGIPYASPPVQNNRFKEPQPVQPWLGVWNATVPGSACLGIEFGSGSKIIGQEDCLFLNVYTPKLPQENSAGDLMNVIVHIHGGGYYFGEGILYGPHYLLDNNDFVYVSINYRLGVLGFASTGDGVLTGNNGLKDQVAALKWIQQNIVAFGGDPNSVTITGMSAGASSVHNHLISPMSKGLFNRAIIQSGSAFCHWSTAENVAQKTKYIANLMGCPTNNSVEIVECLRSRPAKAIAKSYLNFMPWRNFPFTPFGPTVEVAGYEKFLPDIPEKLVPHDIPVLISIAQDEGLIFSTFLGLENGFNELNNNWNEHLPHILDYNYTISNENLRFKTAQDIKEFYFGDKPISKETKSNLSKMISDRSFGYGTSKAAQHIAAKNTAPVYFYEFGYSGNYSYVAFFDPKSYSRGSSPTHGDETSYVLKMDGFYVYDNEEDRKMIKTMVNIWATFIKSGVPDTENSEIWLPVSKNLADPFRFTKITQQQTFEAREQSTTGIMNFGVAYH

In the case of `CC#CCOCc1cc(CCCC)cc2c1OCC2` [Example 3, 5-n-butyl-7-((but-2-ynyloxy)methyl)-2,3-dihydrobenzofuran], the remaining activity at 10000 µM (stock) [1] is reported as 19.9% and the “% activity remaining” value (Bemisia tabaci CYPCM1) is reported as 3.16%.
In the case of `CC#CCOc1ccc2c(c1)OCC2` [EN16-18, 6-(but-2-ynyloxy)-2,3-dihydrobenzofuran], the binding affinity [2] is listed as “comparable with PBO”.
With `C#CCOCc1cc(CCC)cc2c1OCC2` [Example 8, 5-n-propyl-7-((prop-2-ynyloxy)methyl)-2,3-dihydrobenzofuran] the remaining activity at 10000 µM (stock) [1] was 23.9% and the “% activity remaining” value (Bemisia tabaci CYPCM1) was 86.22%.
For `CC#CCOCc1cc(CCC)cc2c1OCC2` [Example 7, 5-n-propyl-7-((but-2-ynyloxy)methyl)-2,3-dihydrobenzofuran], the remaining activity at 10000 µM (stock) [1] was 19.9% and the “% activity remaining” value (Bemisia tabaci CYPCM1) was 17.92%.
For `C#CCOc1cc(CCCCCC)cc2c1OCC2` [Example 6, 5-n-hexyl-7-(prop-2-ynyloxy)-2,3-dihydrobenzofuran], the remaining activity at 10000 µM (stock) [1] was 29.8% and the “% activity remaining” value (Bemisia tabaci CYPCM1) was 61.16%.
For `CC#CCOc1cc(CCCCCC)cc2c1OCC2` [Example 4, 5-n-hexyl-7-(but-2-ynyloxy)-2,3-dihydrobenzofuran], the remaining activity at 10000 µM (stock) [1] was 24% and the “% activity remaining” value (Bemisia tabaci CYPCM1) was 39.22%.
In the case of `CC#CCOCc1cc(CCCCCC)cc2c1OCC2` [Example 2, 5-n-hexyl-7-((but-2-ynyloxy)methyl)-2,3-dihydrobenzofuran], the remaining activity at 10000 µM (stock) [1] is reported as 35.4% and the “% activity remaining” value (Bemisia tabaci CYPCM1) is reported as 27.49%.
With `C#CCOCc1cc(CCCCCC)cc2c1OCC2` [Example 1, 5-n-hexyl-7-((prop-2-ynyloxy)methyl)-2,3-dihydrobenzofuran] the remaining activity at 10000 µM (stock) [1] was 26.2%.
With `C#CCOCc1cc(CCCC)cc2c1OCC2` [Example 5, 5-n-butyl-7-((prop-2-ynyloxy)methyl)-2,3-dihydrobenzofuran] the remaining activity at 10000 µM (stock) [1] was 18.4% and the “% activity remaining” value (Bemisia tabaci CYPCM1) was 87.62%.
